# Test results taken from patent publication US20220151955A1, “KETAMINE FOR THE TREATMENT OF […] AND DISORDERS” (The Ketamine Research Foundation, priority 2019, published 2022).
# Experiments:
# [1] = cited from earlier work
# [2] = test system: women with postpartum depression; details: cited from earlier work
# [3] = Ketamine levels in the breast milk of lactating women after intramuscular ketamine hydrochloride; assay type: in vivo; details: 0.5 and 1.0 mg/kg intramuscular
# Method: A study of the pharmacodynamics of ketamine in the breast milk of lactating women was performed. Ketamine levels in breast milk were quantified in lactating subjects over time. Four women were given intramuscular injections of ketamine hydrochloride at two doses: 0.5 mg/kg and 1.0 mg/kg at intervals of at least one week apart. Breast milk was collected in one subject at 3 hour intervals through 24 hours, and the succeeding three subjects at 3 hour intervals up to 12 hours. Subjects were of different weights and ethnic backgrounds.
# Administered dosages of ketamine ranged from 28 mg to 76 mg. […] For subjects receiving the 0.5 mg/kg dose, the observed range for ketamine in the breast milk of the subject at the 9 to 12 hour collection period (total expression of milk during the period) ranged from 0.09 mg to 1.66 mg. For subjects receiving the 1.0 mg/kg dose, the observed range for ketamine in the breast milk of the subject at the 9 to 12 hour collection period (total expression of milk during the period) ranged from 1.067 mg to 6.22 mg. The highest ketamine level (6.22 mg) was observed following administration of a 76 mg dose of ketamine hydrochloride.
# [4] = in vivo; cited from earlier work
smiles,measurement,setting,value
CN[C@]1(c2ccccc2Cl)CCCCC1=O [S-(+)-ketamine],potency relative to R-(−)-ketamine,[1]; for use in anesthesia,twice as potent as R-(−)-ketamine
CC(=O)[C@H]1CC[C@H]2[C@@H]3CC[C@H]4C[C@H](O)CC[C@]4(C)[C@H]3CC[C@]12C [brexanolone],women no longer clinically depressed,"[2]; within 60 hours, intravenous over 60 hours, two clinical trials of about 250 women, placebo 25 percent",50%
same,adverse effects experienced by some women,[2]; women who received brexanolone,excessive sedation and sudden loss of consciousness
CNC1(c2ccccc2Cl)CCCCC1=O (centres unmarked) [ketamine],levels detectable in breast milk at 12 hours,[3],only minimal levels
same,half-life,[4],less than two and a half hours
NC1(c2ccccc2Cl)CCCCC1=O (centres unmarked) [norketamine],potency relative to ketamine (estimated),"[1]; active metabolite, as stated in Example 1",one-third the potency of ketamine
same,potency relative to ketamine,[1]; for use in anesthesia,one third the potency of ketamine
same,levels detectable in breast milk at 12 hours,[3],only minimal levels
